Measured values reported in US5212075A, “Compositions and methods for introducing effectors to pathogens and cells” (priority 1991, dated 1993).

What was measured:
E. coli K1 pilA+::tetR = assay: microbe, parasite or virus in culture; format: cell-based; settings: for IC100: Escherichia coli, 0.05 h, read-out: Concentration causing total inhibition of yeast agglutination; for Relative Inhibitory Activity: concentration of methyl α-D-mannopyranoside divided by the concentration of the compound
Protocol: Compounds 4, 6-9 and 12 were assayed for bacterial receptor binding using agglutination studies with yeast cells and their inhibitory activity was compared to that of methyl α-D-mannopyranoside 13 (Firon et al. (1983) Carbohydrate Research 120:235; Eshdat et al. (1978) Biochem. Biophys. Res. Commun. 85:1551; and Firon et al. (1982) Biochem. Biophys. Res. Commun. 105:1426. The bacterial strain used in our study was a systemically invasive E. coli K1 pilA+::tetR strain that is responsible for sepsis and meningitis in human infants (Bloch et al. (1990) Infection and Immunity 58:275). A summary of the results is given in Table 2.
^a E. coli K1 pilA+::tetR were grown for 24 h at 37° C. on
solid LB media supplemented with tetracycline and were suspended with a
cotton swab in 4 mL of Dulbecco's PBS to a final dilution of 2 ×
10^8 cells/mL. Yeast (Saccharomyces cerevisiae, wild type) were grown
for 36 h on solid YPD media at 30° C. and were suspended with a
cotton swab in 4 mL of Dulbecco's PBS to a final dilution of 1 ×
10^8 cells mL. Protein concentrations were determined by BCA Protein
Assay (Pierce). Agglutination assays were performed on a 20 well ceramic
ring plate. Typically, 90 μl of a solution of the test compound was
combined with 30 μl of the bacterial suspension. After 30 seconds, 30
μl of the yeast suspension was added to give a final volume of 150
μl and the wells were allowed to develop for 3 min. with agitation. A
μl aliquot was removed from each well and spread onto a standard
microscope slide. The slides were quickly heat fixed and mounted with 10
μl of glycerol. The slides were examined under phase contrast at
500× magnification using a Zeiss Axioskip microscope. Agglutination
was observed as clusters of cells. total inhibition of agglutination was
determined by the observation of single cells only.
^b Concentration causing total inhibition of yeast agglutination.

E. coli cell = assay: Localization of protein A-gold particles on the E. coli cell surface by transmission electron microscopy; format: cell-based; settings: avidin, anti-avidin antibodies, protein A labelled with gold particles (15 nm); no localization without hybrid molecule
Text: The particles were bound through a hybrid molecule consisting of a mannose binding moiety attached to biotin through a carbon linkage. Avidin, anti-avidin antibodies, and protein A labelled with the gold particles were exposed to cell and completed a bridge binding the gold particles. The location of a gold particle is shown by the arrow.
FIG. 6 is an electron micrograph showing a strain of E. coli, similar to that illustrated in FIG. 5, in the absence of the hybrid molecule. The cell was exposed to avidin, anti-avidin antibodies, and protein A labelled with gold particles. No localization of the gold particles was achieved without the hybrid molecules.
E coli cells bound with avidin, as described above, were sequentially exposed to anti-avidin antibodies and gold (15 nm) colloidal particles bound to protein A. It was expected that the gold would localize on the E. coli cell surface through an antibody-protein A bridge. Localization on bacterial pili was confirmed by transmission electron microscopy (TEM). The results are shown in FIG. 5 (typical gold particle shown by arrow) and FIG. 6 (control where E. coli cells incubated with protein A-gold without anti-avidin antibody).

complement (Clq) = assay: Binding of complement (Clq) to anti-avidin (IgG2) bound to E. coli through the hybrid molecule
Text: Clq binding is the first step in the complement cascase which is part of the humoral response.

Molecule | IC100 (E. coli K1 pilA+::tetR) [µM] | Relative Inhibitory Activity (E. coli K1 pilA+::tetR) | other results
CCC[C@H]1O[C@H](CO)[C@@H](O)[C@H](O)[C@@H]1O [Compound 4] | 7000 | 9.6 | 
O=C(O)CC[C@H]1O[C@H](CO)[C@@H](O)[C@H](O)[C@@H]1O [Compound 6] | 47000 | 1.4 | 
NCCC[C@H]1O[C@H](CO)[C@@H](O)[C@H](O)[C@@H]1O [Compound 7] | 40000 | 1.7 | 
OCCC[C@H]1O[C@H](CO)[C@@H](O)[C@H](O)[C@@H]1O [Compound 8] | 13000 | 5.2 | 
O=C(CCCC[C@@H]1SC[C@@H]2NC(=O)N[C@@H]21)NCCC[C@H]1O[C@H](CO)[C@@H](O)[C@H](O)[C@@H]1O [Compound 9] | 7000 | 9.6 | Localization of gold particles on the E. coli surface (TEM) (E. coli cell): localization of gold particles on the surface of an E. coli cell; Clq binding to anti-avidin (IgG2) bound to E. coli (complement (Clq)): has also been shown
CCC[C@@H]1O[C@H](CO)[C@@H](O)[C@H](O)[C@@H]1O [Compound 12] |  |  | Inhibitory activity on agglutination (E. coli K1 pilA+::tetR; at a concentration of 100 mM): no inhibitory activity
CO[C@H]1O[C@H](CO)[C@@H](O)[C@H](O)[C@@H]1O [Compound 13, methyl α-D-mannopyranoside, reference compound] | 67000 | 1 | 
O=[N+]([O-])c1ccc(O[C@H]2O[C@H](CO)[C@@H](O)[C@H](O)[C@@H]2O)cc1 [Compound 14, reference compound] | 1600 | 42 | 
avidin: avidin alone, a soluble glycosylated protein used in place of streptavidin [reference compound] |  |  | Concentration causing total inhibition of yeast agglutination (E. coli K1 pilA+::tetR; E. coli K1 pilA+::tetR with Saccharomyces cerevisiae, 3 min, single cells only under phase contrast): 0.4 mM
